Laboratory results from paper PMC5206489 (Journal of chemical information and modeling, 2016).

How the values were obtained:
[1] = tested on: BG505 SOSIP.664; experiment: Competition ELISA, BG505 SOSIP.664 binding to CD4IgG2; parameters: species or system HIV-1; details: full dose response not achieved owing to solubility limits
[2] = tested on: HIV-1YU2; details: read-out: IC50 (HIV-1YU2); viral infectivity, HIV-1YU2 strain; cited from earlier work
[3] = biological target: core monomeric gp120; details: binding affinity on gp120 core monomer; cited from earlier work

SMILES | inhibition of SOSIP trimer protein binding to sCD4 (in words) [1] | IC50 [2] [nM] | Kd [3] [nM]
CC1(C)CC(NC(=O)C(=O)Nc2ccc(Cl)cc2)CC(C)(C)N1 [compound 1] | weaker inhibition | > 100000 | 3700
CN(Cc1ccc2c(c1)C[C@H](CN=C(N)N)[C@H]2NC(=O)C(=O)Nc1ccc(Cl)c(F)c1)C(=N)N [compound 5] |  | 800 ± 100 | 100
